Data on one molecule can be found in US20210322324A1, “METHOD FOR TREATING PRIMARY SCLEROSING CHOLANGITIS” (AVOLYNT, priority 2018, published 2021).

The structures appear in SMILES notation. Entries after “also recorded” stand apart in the source; their conditions may differ.

A short description of series [1]: Plasma remogliflozin after oral compressed IR tablet of remogliflozin etabonate. It is filed as in vivo. As to conditions: 350 mg remogliflozin etabonate, after 3 hrs. The source says: Oral dosage forms according to the invention are typically tablets or capsules. Tablets can be obtained by direct compression of the mixed components of a dosage form, including an effective dosage amount of remogliflozin etabonate, and selected excipients, like cellulose derivatives, metacrylates, chitosan, carboxymethylstarch (CMS), or mixtures thereof. For example, a compressed tablet according to the invention, can be prepared by granulating remogliflozin etabonate, microcrystalline cellulose and croscarmellose sodium with a water and povidone solution. The resulting granules are dried, milled, and then blended with mannitol, microcrystalline cellulose, and croscarmellose. The blend is lubricated with magnesium stearate and compressed. […] Indeed, Tmax for an IR remogliflozin etabonate oral dosage form according to the invention occurs at 1 hour, or less, following ingestion of the dosage form by a subject.

The next series concerns TIA mice. The series is described as follows: TIA mouse model of primary sclerosing cholangitis, liver histology after remogliflozin etabonate-formulated diet. It is filed as in vivo. From the text:
The following Examples describe the utilization of a murine model of […] (“PSC”) to assess the effectiveness of a treatment regimen based on the oral administration of remogliflozin etabonate. The murine PSC model is based on mice that are deficient for the expression of tumor necrosis factor alpha (“TNFα”), interleukin 10 (“IL-10”), and activation-induced cytidine deaminase (“AICDA”). As the mice are deficient in TNF, IL-10, and AICDA, they are referred to, herein, as “TIA” mice.
Moreover, as AICDA is required for immunoglobulin (“Ig”) class switching, TIA mice lack IgG and IgA, a phenotype analogous to humans with hyper-IgM syndrome. Therefore, with the combination of AICDA deficiency with the risk factors associated with TNFα and IL-10 deficiencies, TIA mice also develop liver and biliary inflammation reminiscent of PSC symptoms in humans. Accordingly, the TIA model is useful for investigating mechanisms that act early in PSC pathogenesis, as well as treatments that can prevent progression to PSC.
Example 1. Orally-administered remogliflozin etabonate reduces inflammatory cell infiltration, bile ductular proliferation, and interface hepatitis in TIA mice. TIA mice were created by first breeding TNFα knock out (“KO”) C57BL/6 mice, (strain B6.129S-Tnf^tm1Gkl/J, stock #005540, Jackson Laboratories, Bar Harbor, Me.) with IL-10 KO mice (strain B10.129P2(B6)-IL10^tm1Cgn/J, Stock No. 002251, Jackson Laboratories) to produce a population of mice that were deficient in TNFα and IL-10. Because mice with a TNFα−/− and IL10−/− genotype spontaneously develop inflammatory bowel disease (“IBD”) (Hale 2012), a condition associated with poor breeding success (Nagy 2016), the mice needed for further breeding to generate an AICDA population, were generated by breeding offspring with a TNFα and IL10+/− genotype with AICDA−/− mice, which were obtained from Dr. Tasuku Honjo (Muramatsu 2000)), to produce a population of TNFα−/−, IL10−/−, and AICDA+/−(“TI-hetA”) males and females. In turn, TI-hetA pairs were bred to generate populations that were 25% TIA mice, and 50% non-colitis-susceptible TI-hetA littermates that could be used as control populations. All populations were exposed to the same environment from birth. The mice were housed in polycarbonate micro-isolator cages, in individually ventilated racks, under barrier conditions that excluded all known pathogens, including Helicobacter pylori and Norovirus. Mice had ad libitum access to water, and to a standard diet (PicoLab Mouse Diet 20/5058, LabDiet, St. Louis, Mo., USA).
At four (4) weeks of age, TIA (40) and TI-hetA (22) mice were randomized into experimental groups that received either a standard diet (20 TIA and 12 het), or a standard diet formulated 0.03% remogliflozin etabonate (20 TIA and 10 het) (Avolynt Inc., USA). The mice were maintained on this diet for seven (7) weeks. Body weights were obtained three (3) times, weekly, to assess the general health of mice, and to track the development of inflammatory bowel disease (IBD). Glycosuria in the experimental groups was assessed by applying freshly voided urine directly to the glucose test patch on an Accutest® URS-10 urinary reagent test strips (Jant Pharmaceutical Corp., Encino, Calif., USA). Mice were humanely euthanized before reaching the experimental endpoint, of eleven (11) weeks of age, if they lost >15% body weight, or developed rectal prolapse.
To characterize biliary lesions in TIA mice at the end of the 7 week treatment period, liver tissue was obtained from the remogliflozin-treated, and untreated groups, for histologic examination. The excised liver tissue was fixed in Carnoy's fixative solution, and processed into paraffin blocks. The paraffin blocks were sectioned, and stained with Hematoxylin and eosin (H&E) for pathologic analysis. The H&E-stained sections were scored by an American Board of Pathology-certified pathologist. […]

Where [2] appears, read: TIA mice, 0.03% in diet for 7 weeks, vs untreated TIA mice, 11 weeks.

With `CCOC(=O)OC[C@H]1O[C@@H](Oc2nn(C(C)C)c(C)c2Cc2ccc(OC(C)C)cc2)[C@H](O)[C@@H](O)[C@@H]1O` [remogliflozin etabonate, 5-methyl-4-[4-(1-methylethoxy)benzyl]-1-(1-methylethyl)-1H-pyrazol-3-yl 6-O-(ethoxycarbonyl)-β-D-glucopyranoside], the “remogliflozin plasma concentration after clearance” value in series [1] is listed as 40 ng/mL. Moreover, in the series with TIA mice (setting [2]), the “inflammation at the interface between the hepatic parenchyma and the portal tracts (interface hepatitis)” value was “reduces; also recorded: less inflammation at the interface between the hepatic parenchyma and the portal tracts”. Further, the “proliferation of bile ductules (bile ductular proliferation)” value with TIA mice (setting [2]) is reported as “reduces; also recorded: less proliferation of bile ductiles”; with TIA mice (TIA mice, 0.03% in diet for 7 weeks, vs untreated TIA mice, 11 weeks, listed as Remo), “decrease in proliferation of bile ductules”. Moreover, the “development and progression of liver and biliary disease” value in the series on TIA mice (TIA mice, 0.03% remogliflozin etabonate in diet for 7 weeks from 4 weeks of age, vs standard diet, H&E liver sections at 11 weeks) was “markedly less development and progression of liver and biliary disease”. In addition, the “number of TIA mice that required early euthanasia, Remo group versus control group” value in the series on TIA mice (TIA mice, 7-week study, euthanasia on >15% body weight loss or rectal prolapse) is given as “no statistical difference”. In the series on TIA mice (TIA mice, orally administered in diet), the inflammatory cell infiltration result is “reduces”. Besides, the “periportal and biliary inflammation” value in the series on TIA mice (TIA mouse at 11 weeks, 0.03% Remo in chow from 4 weeks of age, H&E liver section) was “decrease in periportal and biliary inflammation”.
